# Values joined by “and” are separate entries in the source; they are usually repeats but may differ in a detail not shown here. Identical values can stand only once.
# Legend:
# Assay in all cases: binding to AX14596 beads (HeLa lysate, SILAC MS)
# [1] = target: MET (Homo sapiens, UniProt P08581)
# Method: (§1) Differentially SILAC-encoded cell lysates were either incubated with the inhibitor beads displaying immobilized AX14596 or control resin devoid of ligand. In parallel, the supernatant from the first binding step was subjected to a second incubation with the AX14596 resin (FIG. 4). The resulting three elution fractions were combined, resolved by gel electrophoresis, proteolytically digested and the relative abundance of the retained proteins quantified. Proteins showing considerable binding to the control resin were identified as non-specific interactors and therefore not considered further. […] These target-specific ratios were similar in “label switch” experiments (FIGS. 6a and 6c). The binding equilibrium was determined in parallel control SILAC experiments as well as the excess of the immobilized compound over its cellular targets, the excess preferably being a molar excess (FIG. 7 and FIG. 8).
# (§2) Cysteine carbamidomethylation was set as a fixed modification and N-acetyl protein and oxidized methionine were allowed as variable modifications. Spectra that were determined to result from heavy labeled peptides in the pre-search detection of SILAC partners by MaxQuant were searched with the fixed modifications Lys^4, Lys^8, Arg^6 and Arg^10, whereas MS/MS spectra for which no SILAC state could be assigned before database searching were searched with Lys^4, Lys^8, Arg^6 and Arg^10 as variable modifications. The mass tolerance was set to 5 ppm for monoisotopic precursor ions and to 0.5 Da for MS/MS peaks. The minimum peptide length was set to 6 amino acids and up to three missed cleavages and three isotopically labeled amino acids were permitted per peptide. The accepted false discovery rate (FDR) was 1% for the proteins and peptides. The cut-off for the posterior error probability (PEP) of peptides was set to 10%. Peptide PEPs were determined by generating Mascot score and peptide-length-dependent histograms for both the forward and the reverse hits and then deriving the probability of a false identification for a given top-scoring peptide using Bayes' theorem. The PEPs of peptides belonging to the same proteins were then multiplied. Each peptide sequence was considered only once with the lowest PEP determined in case of multiple sequencing of the same isotopic pattern or of peptide species with different SILAC, charge or modification states. Proteins were then sorted according to their products of their peptide PEPs and included until a FDR of 1% was reached according to the fraction of reverse proteins contained in the protein list. In addition to the FDR threshold applied for protein identification, proteins were only included when they were identified with at least two peptides (of which one was required to be unique for the protein) and quantified if at least on quantifiable SILAC pair was associated with them. Outliers were not removed as protein ratios were calculated as the median instead of the average of all peptide ratios. For peptides shared among different identified proteins, SILAC ratios were only considered for the ratio of the protein identified with the highest number of unique peptides. Protein ratios for the different in vitro association experiments were corrected for the initial SILAC pooling ratio, which was determined from the median of protein ratios in pooled SILAC-encoded cell extracts.
# [2] = target: T1, BLMH (Homo sapiens, UniProt Q13867)
# T1 construct: endogenous in cells; host or cells: HeLa S3
# T1 sequence (Q13867 1-455): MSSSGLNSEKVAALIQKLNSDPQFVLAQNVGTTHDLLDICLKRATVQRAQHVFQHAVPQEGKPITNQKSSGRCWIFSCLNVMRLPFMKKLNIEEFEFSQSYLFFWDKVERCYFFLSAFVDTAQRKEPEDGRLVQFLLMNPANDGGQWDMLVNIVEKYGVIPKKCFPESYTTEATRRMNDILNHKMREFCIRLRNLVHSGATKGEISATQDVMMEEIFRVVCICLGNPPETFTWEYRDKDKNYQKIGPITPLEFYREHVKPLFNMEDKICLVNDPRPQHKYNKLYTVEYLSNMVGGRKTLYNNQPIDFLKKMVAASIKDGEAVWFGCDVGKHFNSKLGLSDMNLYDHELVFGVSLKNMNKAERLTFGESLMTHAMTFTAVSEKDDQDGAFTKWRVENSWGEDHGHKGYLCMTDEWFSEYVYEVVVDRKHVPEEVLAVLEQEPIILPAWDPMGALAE
# Method: as §1, §2
# [3] = target: T2, ALK2 (ACVR1) (Homo sapiens, UniProt Q04771)
# T2 sequence (Q04771 21-509): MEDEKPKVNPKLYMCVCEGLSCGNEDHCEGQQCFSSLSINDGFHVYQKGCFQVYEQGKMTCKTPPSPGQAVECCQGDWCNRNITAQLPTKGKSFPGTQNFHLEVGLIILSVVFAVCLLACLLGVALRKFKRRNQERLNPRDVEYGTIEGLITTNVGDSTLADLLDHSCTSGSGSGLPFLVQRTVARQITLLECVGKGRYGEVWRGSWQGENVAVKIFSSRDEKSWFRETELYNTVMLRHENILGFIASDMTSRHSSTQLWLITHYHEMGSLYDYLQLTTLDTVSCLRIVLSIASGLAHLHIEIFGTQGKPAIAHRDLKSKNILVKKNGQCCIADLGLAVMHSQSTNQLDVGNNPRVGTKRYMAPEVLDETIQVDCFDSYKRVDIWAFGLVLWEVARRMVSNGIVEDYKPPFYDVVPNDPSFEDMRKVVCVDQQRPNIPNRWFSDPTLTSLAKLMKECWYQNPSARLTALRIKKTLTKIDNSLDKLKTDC
# Method: as §1, §2
# [4] = target: EphB4 (Homo sapiens, UniProt P54760)
# Chain of EphB4 (P54760 16-987): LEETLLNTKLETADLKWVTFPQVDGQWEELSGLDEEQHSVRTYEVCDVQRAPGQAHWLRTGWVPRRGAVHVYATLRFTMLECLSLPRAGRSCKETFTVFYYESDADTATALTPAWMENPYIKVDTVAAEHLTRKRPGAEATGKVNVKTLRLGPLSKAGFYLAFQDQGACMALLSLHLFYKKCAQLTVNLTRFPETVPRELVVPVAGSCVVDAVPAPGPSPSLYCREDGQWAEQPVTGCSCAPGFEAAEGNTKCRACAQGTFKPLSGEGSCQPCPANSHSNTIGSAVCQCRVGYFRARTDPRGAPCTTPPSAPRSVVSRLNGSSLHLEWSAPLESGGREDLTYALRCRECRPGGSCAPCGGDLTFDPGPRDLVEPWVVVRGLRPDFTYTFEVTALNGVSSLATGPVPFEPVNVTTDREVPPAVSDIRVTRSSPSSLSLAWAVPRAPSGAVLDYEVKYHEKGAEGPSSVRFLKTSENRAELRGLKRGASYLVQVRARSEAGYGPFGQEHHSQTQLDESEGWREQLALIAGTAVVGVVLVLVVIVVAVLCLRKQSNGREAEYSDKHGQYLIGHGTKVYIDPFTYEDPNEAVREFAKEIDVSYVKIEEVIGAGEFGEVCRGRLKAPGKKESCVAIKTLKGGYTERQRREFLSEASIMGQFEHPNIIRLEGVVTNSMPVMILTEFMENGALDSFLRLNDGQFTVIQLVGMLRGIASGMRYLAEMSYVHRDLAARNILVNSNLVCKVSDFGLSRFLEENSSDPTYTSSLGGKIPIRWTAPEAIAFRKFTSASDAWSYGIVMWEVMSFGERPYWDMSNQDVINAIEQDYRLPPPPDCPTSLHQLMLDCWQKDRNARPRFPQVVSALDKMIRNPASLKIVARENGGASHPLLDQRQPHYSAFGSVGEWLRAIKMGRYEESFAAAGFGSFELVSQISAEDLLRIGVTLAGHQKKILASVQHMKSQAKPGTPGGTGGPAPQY
# Method: as §1, §2
# [5] = target: T3, BRK (PTK6) (Homo sapiens, UniProt Q13882)
# T3 construct: endogenous in cells; host or cells: HeLa S3
# T3 sequence (Q13882 whole entry): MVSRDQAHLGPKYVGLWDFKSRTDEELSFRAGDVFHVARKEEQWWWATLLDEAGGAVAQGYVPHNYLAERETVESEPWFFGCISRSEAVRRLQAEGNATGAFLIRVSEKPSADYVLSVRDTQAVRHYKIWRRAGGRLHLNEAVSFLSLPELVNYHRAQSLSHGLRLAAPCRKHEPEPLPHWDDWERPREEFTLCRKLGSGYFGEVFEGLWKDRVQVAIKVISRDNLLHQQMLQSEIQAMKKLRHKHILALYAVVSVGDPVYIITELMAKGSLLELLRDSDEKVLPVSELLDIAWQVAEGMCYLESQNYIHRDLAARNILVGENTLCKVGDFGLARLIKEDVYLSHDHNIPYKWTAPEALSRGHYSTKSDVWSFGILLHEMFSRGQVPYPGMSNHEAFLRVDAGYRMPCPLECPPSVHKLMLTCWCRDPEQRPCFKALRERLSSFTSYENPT
# Method: as §1, §2
# Chain of MET (P08581 25-1390): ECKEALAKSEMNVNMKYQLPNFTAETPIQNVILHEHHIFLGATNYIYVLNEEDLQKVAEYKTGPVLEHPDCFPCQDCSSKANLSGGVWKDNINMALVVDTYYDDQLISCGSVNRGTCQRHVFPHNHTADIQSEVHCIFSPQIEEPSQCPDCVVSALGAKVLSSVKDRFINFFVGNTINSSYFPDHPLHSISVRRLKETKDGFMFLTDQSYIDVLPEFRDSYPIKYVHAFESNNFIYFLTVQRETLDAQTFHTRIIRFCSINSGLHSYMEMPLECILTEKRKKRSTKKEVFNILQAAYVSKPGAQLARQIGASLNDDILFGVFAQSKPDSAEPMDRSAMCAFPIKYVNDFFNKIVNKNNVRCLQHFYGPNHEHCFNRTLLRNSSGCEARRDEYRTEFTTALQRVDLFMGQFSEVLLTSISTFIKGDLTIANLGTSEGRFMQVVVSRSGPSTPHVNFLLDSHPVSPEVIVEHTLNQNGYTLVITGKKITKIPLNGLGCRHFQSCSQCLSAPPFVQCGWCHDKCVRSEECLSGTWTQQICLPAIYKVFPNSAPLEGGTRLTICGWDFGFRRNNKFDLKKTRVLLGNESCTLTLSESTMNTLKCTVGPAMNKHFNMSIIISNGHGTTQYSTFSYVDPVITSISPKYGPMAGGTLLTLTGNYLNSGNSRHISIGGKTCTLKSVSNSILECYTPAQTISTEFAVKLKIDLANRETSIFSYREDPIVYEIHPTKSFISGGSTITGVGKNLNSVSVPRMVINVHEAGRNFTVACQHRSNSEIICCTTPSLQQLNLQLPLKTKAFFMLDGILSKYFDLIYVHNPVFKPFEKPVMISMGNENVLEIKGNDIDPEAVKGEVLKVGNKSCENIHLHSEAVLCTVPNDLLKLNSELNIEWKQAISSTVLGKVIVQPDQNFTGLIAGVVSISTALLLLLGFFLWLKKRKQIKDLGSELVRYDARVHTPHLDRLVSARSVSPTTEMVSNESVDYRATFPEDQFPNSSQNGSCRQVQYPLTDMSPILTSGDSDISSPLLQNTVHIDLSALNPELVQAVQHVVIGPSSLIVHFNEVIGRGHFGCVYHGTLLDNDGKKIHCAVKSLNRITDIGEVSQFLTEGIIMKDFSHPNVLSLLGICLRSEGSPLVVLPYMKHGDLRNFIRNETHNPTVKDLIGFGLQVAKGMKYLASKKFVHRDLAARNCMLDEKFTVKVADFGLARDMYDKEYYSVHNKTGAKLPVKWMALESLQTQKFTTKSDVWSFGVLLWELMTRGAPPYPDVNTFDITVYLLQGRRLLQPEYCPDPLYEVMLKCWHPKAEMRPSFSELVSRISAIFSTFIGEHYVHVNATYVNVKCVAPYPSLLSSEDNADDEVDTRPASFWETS
structure (smiles),measurement,setting,value
COc1cc2ncnc(Nc3ccc(F)c(Cl)c3)c2cc1OCCCN [AX14596],Ki,[1],267 µM
same,r (3 mg/1 mg lysate),[1],2.30
same,r (5 h/2.5 h inc. time),[1],1.12
same,rAVERAGE (2. inc/1. inc),[1],0.73
same,rAVERAGE (control/1. inc),[1],0.06
same,% BOUND,[1]; bound to AX14596 beads,27%
same,Ki,[2],53.6 µM
same,r (3 mg/1 mg lysate),[2],11.91
same,r (5 h/2.5 h inc. time),[2],1.31
same,rAVERAGE (2. inc/1. inc),[2],0.35
same,rAVERAGE (control/1. inc),[2],0.08
same,Ki,[3],202 µM
same,r (3 mg/1 mg lysate),[3],2.57
same,r (5 h/2.5 h inc. time),[3],1.17
same,rAVERAGE (2. inc/1. inc),[3],0.67
same,rAVERAGE (control/1. inc),[3],0.15
same,Ki,[4],242 µM
same,r (3 mg/1 mg lysate),[4],2.65
same,r (5 h/2.5 h inc. time),[4],0.96
same,rAVERAGE (2. inc/1. inc),[4],0.71
same,rAVERAGE (control/1. inc),[4],0.05
same,% BOUND,[4]; bound to AX14596 beads,29%
same,Ki,[5],45 µM and 45.4 µM
same,r (3 mg/1 mg lysate),[5],2.56
same,r (5 h/2.5 h inc. time),[5],0.96
same,rAVERAGE (2. inc/1. inc),[5],0.31
same,rAVERAGE (control/1. inc),[5],0.02
same,% BOUND,[5]; bound to AX14596 beads,69%
